Laboratory results reported in PMC10945555, “Improving Activity of New Arylurea Agents against Multidrug-Resistant and Biofilm-Producing Staphylococcus epidermidis” (ACS Medicinal Chemistry Letters, 2024).
Converted amounts (≈) assume the structure as drawn. Read-outs that look alike come from different tables or passages of the source.

Legend:
Assay type in all cases: cell-based
[1] = test system: Staphylococcus aureus ATCC BAA-976; experiment: MIC, broth microdilution, MDR/BPSA reference strain; settings: ATCCBAA976; Staphylococcus aureus ATCC BAA-976; read-out: MIC MDR/BPSA
Excerpt: (§1) These strains included susceptible, multidrug-resistant, and biofilm-producing strains of S. epidermidis and S. aureus (MSSE, MDR/BPSE, and MDR/BPSA, respectively). The cornerstone antibiotic linezolid served as a positive control (Table 1). The impact of structural modifications at the aryloxy fragment and the aromatic moiety bound to the propyl linker on the inhibitory activity was initially investigated. […] Further optimization focused on evaluating the impact of the type of substituent and its position on the arylsulfonamide fragment’s activity.
(§2) 2 Biological assay protocols
(§3) Microbiological tests were carried out under aseptic conditions in a laminar chamber of the 2nd […]
(§4) (BioTectum 1.2, Alchem Poland). The assessment of antimicrobial activity was carried out for final compounds in the form of free bases, soluble in DMSO (Merck, Germany), at the initial […]
(§5) concentration of 1 mg/mL. […]
(§6) were provided by Cayman Chemical, USA.
(§7) The activity of all newly synthesized compounds was tested in vitro on a panel of selected reference strains from the American Type Culture Collection (ATCC) of Gram-positive […]
(§8) 2.2 Effect of evaluated compounds on planktonic cells
(§9) The susceptibility of three reference bacterial strains (Staphylococcus epidermidis ATCC […]
(§10) Table S1) and 81 clinical MDR S. epidermidis (Table S2) to the tested compounds was assessed by determining the MIC value (Minimal Inhibitory Concentration) by microdilution in a liquid medium in 96-well flat-bottom cell culture plates (Nest Biotechnology Scientific, USA). The antibacterial properties of the compo unds were tested in the concentration range from 50 µg/mL to 0.1 µg/mL by making a series of double dilutions of the compound in liquid Mueller -Hinton II Broth Cation Adjusted (MHB II, BBL TM, USA) according to the European Committee on […]
(§11) Antimicrobial Susceptibility Testing guidelines (EUCAST).2,3 The determinations were performed twice. The MIC50 and MIC90 values were determined for each of the tested

[2] = test system: Staphylococcus epidermidis ATCC 35984; experiment: MIC, broth microdilution, MDR/BPSE reference strain; settings: Staphylococcus epidermidis, ATCC35984, read-out: MIC MDR/BPSE, Staphylococcus epidermidis ATCC 35984
Excerpt: as §1, §2, §3, §4, §5, §6, §7, §8, §9, §10, §11

[3] = test system: clinical MDR Staphylococcus epidermidis isolates; experiment: MIC, broth microdilution, 81 clinical MDR strains; settings: Staphylococcus epidermidis
Protocol: as §2, §3, §4, §5
were provided by Cayman Chemical, USA. […]
The antibacterial activity of selected compounds was also tested on a panel of 81 unrelated, multidrug -resistant clinical strains of Staphylococcus epidermidis from the own collection of the Department of Pharmaceutical Microbiology of the Jagiellonian University Medical College.
as §8, §9, §10, §11

O=C(Nc1cccc(Cl)c1)NC1CCN(CCC(Oc2ccc(C(F)(F)F)cc2)c2cccs2)CC1 (stereo not drawn) [Compound 25]
MIC [1]: 1.6 µg/mL (≈ 2.97 µM)
MIC [2]: ≤ 0.8 µg/mL
MIC ([3]; 81 clinical strains (Table S5), read-out: Average of MIC): 1.84 µg/mL (≈ 3.42 µM)
MIC ([3]; clinical strain 1 (Table S2), read-out: MIC): 0.8 µg/mL (≈ 1.49 µM)
MIC ([3]; clinical strain 1 (Table S5), read-out: MIC): 1.6 µg/mL (≈ 2.97 µM)
MIC ([3]; clinical strain 2 (Table S2), read-out: MIC): 0.8 µg/mL (≈ 1.49 µM)
MIC ([3]; clinical strain 2 (Table S5), read-out: MIC): 1.6 µg/mL (≈ 2.97 µM)
MIC ([3]; clinical strain 3 (Table S2), read-out: MIC): 0.8 µg/mL (≈ 1.49 µM)
MIC ([3]; clinical strain 3 (Table S5), read-out: MIC): 0.8 µg/mL (≈ 1.49 µM)
MIC ([3]; clinical strain 4 (Table S2), read-out: MIC): 3.12 µg/mL (≈ 5.81 µM)
MIC ([3]; clinical strain 4 (Table S5), read-out: MIC): 1.6 µg/mL (≈ 2.97 µM)
MIC ([3]; clinical strain 5 (Table S2), read-out: MIC): 0.8 µg/mL (≈ 1.49 µM)
MIC ([3]; clinical strain 6 (Table S2), read-out: MIC): 1.6 µg/mL (≈ 2.97 µM)
MIC ([3]; clinical strain 6 (Table S5), read-out: MIC): 1.6 µg/mL (≈ 2.97 µM)
MIC ([3]; clinical strain 7 (Table S2), read-out: MIC): 1.6 µg/mL (≈ 2.97 µM)
MIC ([3]; clinical strain 7 (Table S5), read-out: MIC): 1.6 µg/mL (≈ 2.97 µM)
MIC ([3]; clinical strain 8 (Table S2), read-out: MIC): 1.6 µg/mL (≈ 2.97 µM)
MIC ([3]; clinical strain 8 (Table S5), read-out: MIC): 0.8 µg/mL (≈ 1.49 µM)
MIC ([3]; clinical strain 9 (Table S2), read-out: MIC): 0.8 µg/mL (≈ 1.49 µM)
MIC ([3]; clinical strain 9 (Table S5), read-out: MIC): 3.12 µg/mL (≈ 5.81 µM)
MIC ([3]; clinical strain 10 (Table S2), read-out: MIC): 3.12 µg/mL (≈ 5.81 µM)
MIC ([3]; clinical strain 10 (Table S5), read-out: MIC): 3.12 µg/mL (≈ 5.81 µM)
MIC ([3]; clinical strain 11 (Table S2), read-out: MIC): 1.6 µg/mL (≈ 2.97 µM)
MIC ([3]; clinical strain 11 (Table S5), read-out: MIC): 1.6 µg/mL (≈ 2.97 µM)
MIC ([3]; clinical strain 12 (Table S2), read-out: MIC): 3.12 µg/mL (≈ 5.81 µM)
MIC ([3]; clinical strain 12 (Table S5), read-out: MIC): 1.6 µg/mL (≈ 2.97 µM)
MIC ([3]; clinical strain 13 (Table S2), read-out: MIC): 1.6 µg/mL (≈ 2.97 µM)
MIC ([3]; clinical strain 13 (Table S5), read-out: MIC): 1.6 µg/mL (≈ 2.97 µM)
MIC ([3]; clinical strain 14 (Table S2), read-out: MIC): 3.12 µg/mL (≈ 5.81 µM)
MIC ([3]; clinical strain 14 (Table S5), read-out: MIC): 1.6 µg/mL (≈ 2.97 µM)
MIC ([3]; clinical strain 15 (Table S2), read-out: MIC): 1.6 µg/mL (≈ 2.97 µM)
MIC ([3]; clinical strain 15 (Table S5), read-out: MIC): 3.12 µg/mL (≈ 5.81 µM)
MIC ([3]; clinical strain 16 (Table S2), read-out: MIC): 3.12 µg/mL (≈ 5.81 µM)
MIC ([3]; clinical strain 16 (Table S5), read-out: MIC): 1.6 µg/mL (≈ 2.97 µM)
MIC ([3]; clinical strain 17 (Table S2), read-out: MIC): 1.6 µg/mL (≈ 2.97 µM)
MIC ([3]; clinical strain 17 (Table S5), read-out: MIC): 0.1 µg/mL (≈ 0.186 µM)
MIC ([3]; clinical strain 18 (Table S2), read-out: MIC): 1.6 µg/mL (≈ 2.97 µM)
MIC ([3]; clinical strain 18 (Table S5), read-out: MIC): 3.12 µg/mL (≈ 5.81 µM)
MIC ([3]; clinical strain 19 (Table S2), read-out: MIC): 1.6 µg/mL (≈ 2.97 µM)
MIC ([3]; clinical strain 19 (Table S5), read-out: MIC): 0.8 µg/mL (≈ 1.49 µM)
MIC ([3]; clinical strain 20 (Table S2), read-out: MIC): 0.1 µg/mL (≈ 0.186 µM)
MIC ([3]; clinical strain 20 (Table S5), read-out: MIC): 1.6 µg/mL (≈ 2.97 µM)
MIC ([3]; clinical strain 21 (Table S2), read-out: MIC): 1.6 µg/mL (≈ 2.97 µM)
MIC ([3]; clinical strain 21 (Table S5), read-out: MIC): 1.6 µg/mL (≈ 2.97 µM)
MIC ([3]; clinical strain 22 (Table S2), read-out: MIC): 1.6 µg/mL (≈ 2.97 µM)
MIC ([3]; clinical strain 22 (Table S5), read-out: MIC): 0.8 µg/mL (≈ 1.49 µM)
MIC ([3]; clinical strain 23 (Table S2), read-out: MIC): 1.6 µg/mL (≈ 2.97 µM)
MIC ([3]; clinical strain 23 (Table S5), read-out: MIC): 1.6 µg/mL (≈ 2.97 µM)
MIC ([3]; clinical strain 24 (Table S2), read-out: MIC): 0.8 µg/mL (≈ 1.49 µM)
MIC ([3]; clinical strain 24 (Table S5), read-out: MIC): 1.6 µg/mL (≈ 2.97 µM)
MIC ([3]; clinical strain 25 (Table S2), read-out: MIC): 3.12 µg/mL (≈ 5.81 µM)
MIC ([3]; clinical strain 25 (Table S5), read-out: MIC): 0.8 µg/mL (≈ 1.49 µM)
MIC ([3]; clinical strain 26 (Table S2), read-out: MIC): 1.6 µg/mL (≈ 2.97 µM)
MIC ([3]; clinical strain 26 (Table S5), read-out: MIC): 3.12 µg/mL (≈ 5.81 µM)
MIC ([3]; clinical strain 27 (Table S2), read-out: MIC): 0.4 µg/mL (≈ 0.743 µM)
MIC ([3]; clinical strain 27 (Table S5), read-out: MIC): 3.12 µg/mL (≈ 5.81 µM)
MIC ([3]; clinical strain 28 (Table S2), read-out: MIC): 0.8 µg/mL (≈ 1.49 µM)
MIC ([3]; clinical strain 28 (Table S5), read-out: MIC): 0.8 µg/mL (≈ 1.49 µM)
MIC ([3]; clinical strain 29 (Table S2), read-out: MIC): 1.6 µg/mL (≈ 2.97 µM)
MIC ([3]; clinical strain 29 (Table S5), read-out: MIC): 0.4 µg/mL (≈ 0.743 µM)
MIC ([3]; clinical strain 30 (Table S2), read-out: MIC): 3.12 µg/mL (≈ 5.81 µM)
MIC ([3]; clinical strain 30 (Table S5), read-out: MIC): 0.8 µg/mL (≈ 1.49 µM)
MIC ([3]; clinical strain 31 (Table S2), read-out: MIC): 0.8 µg/mL (≈ 1.49 µM)
MIC ([3]; clinical strain 31 (Table S5), read-out: MIC): 1.6 µg/mL (≈ 2.97 µM)
MIC ([3]; clinical strain 32 (Table S2), read-out: MIC): 1.6 µg/mL (≈ 2.97 µM)
MIC ([3]; clinical strain 32 (Table S5), read-out: MIC): 1.6 µg/mL (≈ 2.97 µM)
MIC ([3]; clinical strain 33 (Table S2), read-out: MIC): 3.12 µg/mL (≈ 5.81 µM)
MIC ([3]; clinical strain 33 (Table S5), read-out: MIC): 1.6 µg/mL (≈ 2.97 µM)
MIC ([3]; clinical strain 34 (Table S2), read-out: MIC): 1.6 µg/mL (≈ 2.97 µM)
MIC ([3]; clinical strain 34 (Table S5), read-out: MIC): 1.6 µg/mL (≈ 2.97 µM)
MIC ([3]; clinical strain 35 (Table S2), read-out: MIC): 1.6 µg/mL (≈ 2.97 µM)
MIC ([3]; clinical strain 35 (Table S5), read-out: MIC): 1.6 µg/mL (≈ 2.97 µM)
MIC ([3]; clinical strain 36 (Table S2), read-out: MIC): 0.8 µg/mL (≈ 1.49 µM)
MIC ([3]; clinical strain 36 (Table S5), read-out: MIC): 1.6 µg/mL (≈ 2.97 µM)
MIC ([3]; clinical strain 37 (Table S2), read-out: MIC): 1.6 µg/mL (≈ 2.97 µM)
MIC ([3]; clinical strain 37 (Table S5), read-out: MIC): 1.6 µg/mL (≈ 2.97 µM)
MIC ([3]; clinical strain 38 (Table S2), read-out: MIC): 1.6 µg/mL (≈ 2.97 µM)
MIC ([3]; clinical strain 38 (Table S5), read-out: MIC): 1.6 µg/mL (≈ 2.97 µM)
MIC ([3]; clinical strain 39 (Table S2), read-out: MIC): 1.6 µg/mL (≈ 2.97 µM)
MIC ([3]; clinical strain 39 (Table S5), read-out: MIC): 0.8 µg/mL (≈ 1.49 µM)
MIC ([3]; clinical strain 40 (Table S2), read-out: MIC): 1.6 µg/mL (≈ 2.97 µM)
MIC ([3]; clinical strain 40 (Table S5), read-out: MIC): 0.8 µg/mL (≈ 1.49 µM)
MIC ([3]; clinical strain 41 (Table S2), read-out: MIC): 0.8 µg/mL (≈ 1.49 µM)
MIC ([3]; clinical strain 41 (Table S5), read-out: MIC): 1.6 µg/mL (≈ 2.97 µM)
